Where two headings read alike, the source gives them in different places.

Assay [1] deals with NCI-N87 (Human Gastric Cancer Cell). Description: Bioactivity detection of NCI-N87 cell growth inhibition (CellTiter-Glo). Type of assay: cell-based. The following applies: NCI-N87 cells, 72 hours, highest concentration 10 μM, read-out: N87 CTG IC50. On the procedure:
This detection method is used to evaluate the biological activity of the compounds described in this disclosure at the cellular level.
(§1) NCI-N87 cells (purchased from the Chinese Academy of Sciences) were harvested, resuspended in complete medium and adjusted to a cell density of 0.1×10^6 cells per ml. The cell suspension was added to a 96-well plate at a volume of 100 μL per well and cultured overnight in a 37° C., 5% CO2 incubator. Prepare the test compound and add it to the cell plate so that the highest concentration of the compound is 10 μM. Set 8 concentration points according to 3-fold dilution. At the same time, 100% inhibition control wells were set, that is, wells with no cells but only an equal volume of complete culture medium; and 0% inhibition control wells, that is, wells with cells added with 0.1% DMSO. The cell plate was cultured at 37° C. and 5% CO2 for 72 hours. Remove the cell culture plate and add 25 μl CellTiter-Glo Luminescent Cell Viability Reagent (promega cat #G7573) to each well. Incubate in the dark for 10 minutes and then transfer 100 μL to a white plate and use Molecular Devices SpectraMax i3 to detect chemiluminescence. The inhibition rate was calculated using the following formula for data processing: compound inhibition rate=(0% inhibition control well signal−compound treatment well signal)/(0% inhibition control well signal−100% inhibition control well signal)*10000. The calculated data were fitted with four parameters using GraphPad Prism software and the corresponding IC50 was calculated.

Assay [2] has as its system HGC27 (Human Gastric Cancer Cell). The assay can be described thus: Bioactivity assay for HGC27 cell growth inhibition (CellTiter-Glo). The format is cell-based. As to conditions: read-out: HGC27 CTG IC50. On the procedure: This detection method is used to evaluate the biological activity of the compounds of the present disclosure at the cellular level.
as §1, with “HGC27” for “NCI-N87”, “0.2×10^6” for “0.1×10^6”, “24” for “72”, “CellTiter-Glo®” for “CellTiter-Glo”, “signal)*100%.” for “signal)*10000.”

Setting [3] is: HGC-27, HGC27 cells, 24 hours, CellTiter-Glo, highest concentration 10 μM.

Turning to `Cn1c2cc(CNc3ncc(C(F)(F)F)c(N[C@@H]4CNCC[C@@H]4O)n3)ccc2c2nccc(C#N)c21` [Compound 93], the IC50 amounted to 4.1 nM in assay [1] and 17 nM in assay [2] (setting [3]). With `N#Cc1ccnc2c1[nH]c1cc(CNc3ncc(C(F)(F)F)c(N[C@@H]4CNC[C@@H]4O)n3)ccc12` [Compound 86], the IC50 in assay [1] was determined as 4 nM; in assay [2] (setting [3]) it was 6 nM. For the compound `NCc1cccc2c3ccc(CNc4ncc(C(F)(F)F)c(OC5COC5)n4)cc3nn12` [Compound 28], the IC50 in assay [2] (setting [3]) worked out at 313 nM.

Regarding `CC[C@@H](Nc1nc(NCc2ccc3c(c2)[nH]c2c(CO)ccnc23)ncc1C(F)(F)F)[C@@H](C)O` [Compound 23], the IC50 in assay [2] (setting [3]) is 13 nM.

For the compound `N#Cc1ccnc2c1[nH]c1cc(CNc3ncc(C(F)(F)F)c(N[C@@H]4CNCC[C@@H]4O)n3)ccc12` [Compound 81], the IC50 in assay [1] came out at 0.8 nM; in assay [2] (HGC-27, 24 h) it was 2 nM. For the compound `COc1ccnc2c1[nH]c1cc(CNc3ncc(C(F)(F)F)c(OC4COC4)n3)ccc12` [Compound 35], the IC50 in assay [2] (setting [3]) came out at 120 nM. Turning to `C[C@@H](O)[C@@H](C)Nc1nc(NCc2ccc3c(c2)[nH]c2c(C#N)ccnc23)ncc1C(F)(F)F` [Compound 98], the figures for the IC50 in assay [1] and in assay [2] (setting [3]) were 2 nM and 7 nM, respectively. For `CO[C@@H](C)[C@@H](Nc1nc(NCc2ccc3c(c2)[nH]c2c(CO)ccnc23)ncc1C#N)C(N)=O` [Compound 74], the IC50 in assay [1] came out at 75 nM; in assay [2] (setting [3]), 128 nM. In the case of `CC[C@@H](Nc1nc(NCc2ccc3c(c2)[nH]c2c(C)ccnc23)ncc1C(F)(F)F)C(N)=O` [Compound 70], the results for the IC50 in assay [1] and in assay [2] (setting [3]) were 13 nM and 112 nM, respectively.

For `CN1CC[C@H](O)[C@H](Nc2nc(NCc3ccc4c(c3)[nH]c3c(C#N)ccnc34)ncc2C(F)(F)F)C1` [Compound 88], the IC50 in assay [1] and in assay [2] (setting [3]) was 2 nM throughout. `OCc1ccnc2c1[nH]c1cc(CNc3ncc(C(F)(F)F)c(OC4COC4)n3)ccc12` [Compound 7]: the IC50 in assay [2] (setting [3]) worked out at 43 nM. Same read-out and setting: next, `FC(F)(F)c1cnc(NCc2ccc3c(c2)[nH]c2scnc23)nc1OC1COC1` [Compound 29]: 374 nM. Consider `N#Cc1ccnc2c1[nH]c1cc(CNc3ncc(C(F)(F)F)c(N[C@@H]4CN(C(=O)CO)CC[C@@H]4O)n3)ccc12` [Compound 92], for which the IC50 in assay [2] (setting [3]) is 48 nM. Turning to `COc1ccnc2c1[nH]c1cc(CNc3ncc(C(F)(F)F)c(N[C@@H](C(N)=O)[C@H](C)OC)n3)ccc12` [Compound 97], the IC50 came out at 6.6 nM in assay [1] and 43 nM in assay [2] (setting [3]).

On to `OCc1ccnc2c1[nH]c1cc(CNc3ncc(C(F)(F)F)c(N[C@@H]4CNC[C@@H]4O)n3)ccc12` [Compound 78], for which the figures for the IC50 in assay [1] and in assay [2] (setting [3]) were 120 nM and 244 nM, respectively. With `NCc1ccnc2c1[nH]c1cc(CNc3ncc(C(F)(F)F)c(N[C@@H](C(N)=O)C4CCC4)n3)ccc12` [Compound 56], the values for the IC50 in assay [1] and in assay [2] (setting [3]) were 30 nM and 25 nM, respectively. As to `OCc1ccnc2c1[nH]c1cc(CNc3ncc(C(F)(F)F)c(N[C@@H]4CCNC[C@@H]4O)n3)ccc12` [Compound 77], the figures for the IC50 in assay [1] and in assay [2] (setting [3]) were 61 nM and 151 nM, respectively. For the compound `Cn1c2cc(CNc3ncc(C(F)(F)F)c(OC4COC4)n3)ccc2c2ncccc21` [Compound 3], in assay [2] (setting [3]), the IC50 was determined as 342 nM. Take `C[C@@H](O)[C@@H](CO)Nc1nc(NCc2ccc3c(c2)[nH]c2c(CO)ccnc23)ncc1C(F)(F)F` [Compound 13]: the IC50 in assay [1] was determined as 13 nM; in assay [2] (setting [3]), 41 nM. `FC(F)(F)c1cnc(NCc2ccc3c(c2)nn2ccncc32)nc1OC1COC1` [Compound 49]: the IC50 in assay [2] (HGC-27, 24 h) came out at 510 nM. For `N#Cc1ccnc2c1[nH]c1cc(CNc3ncc(C(F)(F)F)c(N[C@@H]4CCNC[C@@H]4O)n3)ccc12` [Compound 89], the values for the half-inhibitory concentration (IC50) in assay [1] and in assay [2] (setting [3]) were 2.9 nM and 2 nM, respectively. Taken in the same sequence, the figures for `C[C@@H](O)[C@@H](C)Nc1nc(NCc2ccc3c(c2)nn2c(CO)ccnc32)ncc1C(F)(F)F` [Compound 60] were 1.8 nM and 13 nM. As to `FC(F)(F)c1cnc(NCc2ccc3c(c2)nn2cccnc32)nc1OC1COC1` [Compound 36], in assay [2] (HGC-27, 24 h), the IC50 came to 133 nM. As to `CC(C)[C@@H](Nc1nc(NCc2ccc3c(c2)nn2c(CO)ccnc32)ncc1C(F)(F)F)C(N)=O` [Compound 50], the IC50 in assay [2] (setting [3]) was 257 nM.

As for `FC(F)(F)c1cnc(NCc2ccc3c(n2)[nH]c2cccnc23)nc1OC1COC1` [Compound 10], the IC50 in assay [2] (setting [3]) was 225 nM.

`OCc1cccc2c3ccc(CNc4ncc(C(F)(F)F)c(OC5COC5)n4)cc3nn12` [Compound 26]: in assay [2] (setting [3]), the IC50 was 387 nM.

With `C[C@@H](Nc1nc(NCc2ccc3c(c2)[nH]c2c(CO)ccnc23)ncc1C(F)(F)F)C(N)=O` [Compound 46], in assay [2] (setting [3]), the IC50 was determined as 79 nM.

Take `FC(F)(F)c1cnc(NCc2ccc3c(c2)[nH]c2ncsc23)nc1OC1COC1` [Compound 14]: the IC50 in assay [2] (setting [3]) stood at 75 nM.

For `N#Cc1ccnc2c3ccc(CNc4ncc(C(F)(F)F)c(N[C@@H]5CNCC[C@@H]5O)n4)cc3nn12` [Compound 96], in assay [2] (setting [3]), the IC50 stood at 110 nM. Regarding `Cc1cc2c(cc1CNc1ncc(C(F)(F)F)c(OC3COC3)n1)[nH]c1cccnc12` [Compound 16], the IC50 in assay [2] (setting [3]) worked out at 520 nM. For `CC[C@@H](Nc1nc(NCc2ccc3c(c2)[nH]c2cccnc23)ncc1C(F)(F)F)C(N)=O` [Compound 4], the IC50 in assay [2] (setting [3]) was found to be 238 nM. On the same count and under the same terms, next, `FC(F)(F)c1cnc(NCc2ccc3c(c2)nc2cccnn23)nc1OC1COC1` [Compound 51]: 145 nM; `N#Cc1cccc2c3ccc(CNc4ncc(C(F)(F)F)c(OC5COC5)n4)cc3nn12` [Compound 24]: 80 nM. Consider `CC[C@@H](Nc1nc(NCc2ccc3c(c2)[nH]c2c(CNC(C)=O)ccnc23)ncc1C(F)(F)F)C(N)=O` [Compound 47], for which the IC50 in assay [2] (setting [3]) came to 266 nM. For `C[C@@H](O)[C@@H](C)Oc1nc(NCc2ccc3c(c2)[nH]c2cccnc23)ncc1C(F)(F)F` [Compound 11], in assay [2] (setting [3]), the IC50 was 62 nM. For the compound `FC(F)(F)c1cnc(NCc2cc3[nH]c4cccnc4c3s2)nc1OC1COC1` [Compound 20], the IC50 in assay [2] (setting [3]) is 454 nM. With `C[C@@H](O)[C@@H](C)Oc1nc(NCc2ccc3c(c2)[nH]c2c(CN)ccnc23)ncc1C(F)(F)F` [Compound 27], in assay [2] (setting [3]), the IC50 worked out at 21 nM. On to `FC(F)(F)c1cnc(NCc2ccc3c(c2)[nH]c2ncccc23)nc1OC1COC1` [Compound 45], for which the IC50 in assay [2] (setting [3]) came to 89 nM. As to `Cc1ccnc2c1[nH]c1cc(CNc3ncc(C(F)(F)F)c(OC4COC4)n3)ccc12` [Compound 6], in assay [2] (setting [3]), the IC50 turned out to be 145 nM. For the compound `CC[C@@H](Nc1nc(NCc2ccc3c(c2)[nH]c2c(CO)ccnc23)ncc1C(F)(F)F)C(=O)N(C)C` [Compound 100], the IC50 in assay [1] was 112 nM.

With `Cc1ccc2[nH]c3cc(CNc4ncc(C(F)(F)F)c(OC5COC5)n4)ccc3c2n1` [Compound 8], the IC50 in assay [2] (setting [3]) is 308 nM. `FC(F)(F)c1cnc(NCc2ccc3c(c2)oc2cccnc23)nc1OC1COC1` [Compound 9]: in assay [2] (setting [3]), the IC50 turned out to be 292 nM.

As to `CC[C@@H](Nc1nc(NCc2ccc3c(c2)[nH]c2c(CO)ccnc23)ncc1C(F)(F)F)C(=O)NC` [Compound 99], the IC50 in assay [1] was 117 nM. As to `C[C@@H](O)[C@@H](CO)Nc1nc(NCc2ccc3c(c2)[nH]c2cccnc23)ncc1C(F)(F)F` [Compound 5], the IC50 in assay [2] (setting [3]) came out at 30 nM. As to `NCc1ccnc2c1[nH]c1cc(CNc3ncc(C(F)(F)F)c(OC4COC4)n3)ccc12` [Compound 19], the IC50 in assay [2] (setting [3]) was determined as 62 nM.
